According to publication PMC5218480 (PLoS ONE, 2017):

Tested on: MV-4-11 cells
Test: Gene expression microarray analysis (Affymetrix PrimeView) and GSEA
Format: cell-based, human
Set-up: RFU PODN (11730768_x_at) / Fold change /veh PODN (11730768_x_at) / RFU LINC00158 (11744669_a_at) / Fold change /veh LINC00158 (11744669_a_at) / RFU DUSP10 (11751237_a_at) / Fold change /veh DUSP10 (11751237_a_at) / RFU ID3 (11757404_x_at) / Fold change /veh ID3 (11757404_x_at) / RFU PLEKHG5 (11737974_s_at) / Fold change /veh PLEKHG5 (11737974_s_at) / RFU LRRC4B (11730491_at) / Fold change /veh LRRC4B (11730491_at) / RFU GIMAP4 (11747438_a_at) / Fold change /veh GIMAP4 (11747438_a_at) / RFU KRT8 (11758183_x_at) / Fold change /veh KRT8 (11758183_x_at) / RFU CNN1 (11734310_a_at) / Fold change /veh CNN1 (11734310_a_at) / RFU VPS37D (11726825_at) / Fold change /veh VPS37D (11726825_at) / RFU C10orf10 (11716522_x_at) / Fold change /veh C10orf10 (11716522_x_at) / RFU KIR2DL2 /// KIR2DL4 /// KIR2DL5A /// KIR2DL5B /// KIR2DS1 /// KIR2DS2 /// KIR2DS3 /// KIR2DS4 /// KIR3DL3 /// KIR3DL3 /// KIR3DS1 (11738374_at) / Fold change /veh KIR2DL2 /// KIR2DL4 /// KIR2DL5A /// KIR2DL5B /// KIR2DS1 /// KIR2DS2 /// KIR2DS3 /// KIR2DS4 /// KIR3DL3 /// KIR3DL3 /// KIR3DS1 (11738374_at) / RFU C1QL1 (11718748_at) / Fold change /veh C1QL1 (11718748_at) / RFU TMPRSS4 (11747572_a_at) / Fold change /veh TMPRSS4 (11747572_a_at) / RFU HAMP (11756126_x_at) / Fold change /veh HAMP (11756126_x_at) / RFU RNFT2 (11725882_a_at) / Fold change /veh RNFT2 (11725882_a_at) / RFU NR4A2 (11747474_a_at) / Fold change /veh NR4A2 (11747474_a_at) / RFU ABCC12 (11746883_a_at) / Fold change /veh ABCC12 (11746883_a_at) / RFU TMEM136 (11760407_x_at) / Fold change /veh TMEM136 (11760407_x_at) / RFU CLDN22 /// WWC2 (11732394_at) / Fold change /veh CLDN22 /// WWC2 (11732394_at) / RFU HLA-DPB1 (11760878_x_at) / Fold change /veh HLA-DPB1 (11760878_x_at) / RFU SPINT1 (11716480_a_at) / Fold change /veh SPINT1 (11716480_a_at) / RFU GAP43 (11754022_s_at) / Fold change /veh GAP43 (11754022_s_at) / RFU A4GNT (11735810_at) / Fold change /veh A4GNT (11735810_at) / RFU PRB3 (11715151_x_at) / Fold change /veh PRB3 (11715151_x_at) / RFU TUBB4B (11761932_at) / Fold change /veh TUBB4B (11761932_at) / RFU CAPN14 (11732068_a_at) / Fold change /veh CAPN14 (11732068_a_at) / RFU TMCC2 (11721928_a_at) / Fold change /veh TMCC2 (11721928_a_at) / RFU IRGQ (11745062_a_at) / Fold change /veh IRGQ (11745062_a_at) / RFU FAM174B (11720279_a_at) / Fold change /veh FAM174B (11720279_a_at) / RFU TMPRSS4 (11748680_a_at) / Fold change /veh TMPRSS4 (11748680_a_at) / RFU FAM212B (11763350_a_at) / Fold change /veh FAM212B (11763350_a_at) / RFU PLEKHG5 (11743358_a_at) / Fold change /veh PLEKHG5 (11743358_a_at) / RFU ZSCAN30 (11745921_a_at) / Fold change /veh ZSCAN30 (11745921_a_at) / RFU CMKLR1 (11741424_a_at) / Fold change /veh CMKLR1 (11741424_a_at) / RFU LOC101060620 /// MAPK8IP1 (11723275_at) / Fold change /veh LOC101060620 /// MAPK8IP1 (11723275_at) / RFU SPTSSB (11747773_x_at) / Fold change /veh SPTSSB (11747773_x_at) / RFU PRSS12 (11739890_at) / Fold change /veh PRSS12 (11739890_at) / RFU BIN1 (11741810_x_at) / Fold change /veh BIN1 (11741810_x_at) / RFU WNT11 (11732464_a_at) / Fold change /veh WNT11 (11732464_a_at) / RFU C10orf10 (11716521_a_at) / Fold change /veh C10orf10 (11716521_a_at) / RFU C5orf56 (11738089_at) / Fold change /veh C5orf56 (11738089_at) / RFU CYB561 (11721691_x_at) / Fold change /veh CYB561 (11721691_x_at) / RFU ANKRD19P (11752326_a_at) / Fold change /veh ANKRD19P (11752326_a_at) / RFU OR2T12 /// OR2T33 /// OR2T8 (11738714_s_at) / Fold change /veh OR2T12 /// OR2T33 /// OR2T8 (11738714_s_at) / RFU VCAN (11748164_a_at) / Fold change /veh VCAN (11748164_a_at) / RFU JSRP1 (11732532_at) / Fold change /veh JSRP1 (11732532_at) / RFU KRTAP10-11 (11738290_x_at) / Fold change /veh KRTAP10-11 (11738290_x_at) / RFU MYO3A (11730013_a_at) / Fold change /veh MYO3A (11730013_a_at) / RFU EBF3 (11725865_a_at) / Fold change /veh EBF3 (11725865_a_at) / RFU CAMK2N1 (11719241_x_at) / Fold change /veh CAMK2N1 (11719241_x_at) / RFU C5orf56 (11738088_a_at) / Fold change /veh C5orf56 (11738088_a_at) / RFU OLFML3 (11715873_a_at) / Fold change /veh OLFML3 (11715873_a_at) / RFU LOC100653217 /// NTM (11731650_a_at) / Fold change /veh LOC100653217 /// NTM (11731650_a_at) / RFU MAPK11 (11762145_a_at) / Fold change /veh MAPK11 (11762145_a_at) / RFU FIZ1 (11724087_x_at) / Fold change /veh FIZ1 (11724087_x_at) / RFU OASL (11726364_x_at) / Fold change /veh OASL (11726364_x_at) / RFU SOX15 (11748057_x_at) / Fold change /veh SOX15 (11748057_x_at) / RFU CD79A (11719716_a_at) / Fold change /veh CD79A (11719716_a_at) / RFU HIST1H1D (11736915_at) / Fold change /veh HIST1H1D (11736915_at) / RFU CASKIN2 (11723855_a_at) / Fold change /veh CASKIN2 (11723855_a_at) / RFU LOC730098 (11760151_x_at) / Fold change /veh LOC730098 (11760151_x_at) / RFU OR4N2 (11742367_at) / Fold change /veh OR4N2 (11742367_at) / RFU PRRT2 (11749266_a_at) / Fold change /veh PRRT2 (11749266_a_at) / RFU SNX32 (11753110_a_at) / Fold change /veh SNX32 (11753110_a_at) / RFU CDHR5 (11726645_a_at) / Fold change /veh CDHR5 (11726645_a_at) / RFU RCAN1 (11760418_a_at) / Fold change /veh RCAN1 (11760418_a_at) / RFU FAM167A (11723789_a_at) / Fold change /veh FAM167A (11723789_a_at) / RFU FAM26E (11764081_at) / Fold change /veh FAM26E (11764081_at) / RFU ISYNA1 (11749810_s_at) / Fold change /veh ISYNA1 (11749810_s_at) / RFU ACY1 (11761880_at) / Fold change /veh ACY1 (11761880_at) / RFU 11764098_at / Fold change /veh 11764098_at / RFU SAMD14 (11745864_x_at) / Fold change /veh SAMD14 (11745864_x_at) / RFU NPB (11741838_a_at) / Fold change /veh NPB (11741838_a_at) / RFU TMPRSS6 (11731388_a_at) / Fold change /veh TMPRSS6 (11731388_a_at) / RFU KRTAP10-2 (11738614_at) / Fold change /veh KRTAP10-2 (11738614_at) / RFU ARHGAP8 /// PRR5-ARHGAP8 (11727945_x_at) / Fold change /veh ARHGAP8 /// PRR5-ARHGAP8 (11727945_x_at) / RFU KRTAP5-7 /// NADSYN1 (11734609_at) / Fold change /veh KRTAP5-7 /// NADSYN1 (11734609_at) / RFU RASL12 (11751679_a_at) / Fold change /veh RASL12 (11751679_a_at) / RFU CDKN2B (11736163_a_at) / Fold change /veh CDKN2B (11736163_a_at) / RFU PRF1 (11729649_at) / Fold change /veh PRF1 (11729649_at) / RFU, ZNF638 /// ZNF638-IT1 / Fold change vs veh, ZNF638 /// ZNF638-IT1 / RFU, PANK3 / Fold change vs veh, PANK3 / RFU, SH3YL1 / Fold change vs veh, SH3YL1 / RFU, ZEB2 / Fold change vs veh, ZEB2 / RFU, NRIP1 / Fold change vs veh, NRIP1 / RFU, PTTG1IP / Fold change vs veh, PTTG1IP / RFU, CAPN2 / Fold change vs veh, CAPN2 / RFU, MED14 / Fold change vs veh, MED14 / RFU, SNORA58 / Fold change vs veh, SNORA58 / RFU, C1orf63 / Fold change vs veh, C1orf63 / RFU, LRRFIP1 / Fold change vs veh, LRRFIP1 / RFU, NDUFAF7 / Fold change vs veh, NDUFAF7 / RFU, SLC12A2 / Fold change vs veh, SLC12A2 / RFU, IBTK / Fold change vs veh, IBTK / RFU, ESF1 / Fold change vs veh, ESF1 / Fold change vs veh, TMEM50B / RFU, TAOK1 / Fold change vs veh, TAOK1 / RFU, ACBD3 / Fold change vs veh, ACBD3 / RFU, TMA16 / Fold change vs veh, TMA16 / RFU, RWDD3 / Fold change vs veh, RWDD3 / RFU, BCAT1 / Fold change vs veh, BCAT1 / RFU, EDEM3 / Fold change vs veh, EDEM3 / RFU, TMEM33 / Fold change vs veh, TMEM33 / RFU, WDR75 / Fold change vs veh, WDR75 / RFU, AHCTF1 / Fold change vs veh, AHCTF1 / RFU, TFRC / Fold change vs veh, TFRC / RFU, ZDHHC17 / Fold change vs veh, ZDHHC17 / RFU, NOM1 / Fold change vs veh, NOM1 / RFU, ARL8B / Fold change vs veh, ARL8B / RFU, ZBTB11 / Fold change vs veh, ZBTB11 / RFU, TAMM41 / Fold change vs veh, TAMM41 / RFU, KIAA1704 /// LOC100996395 / Fold change vs veh, KIAA1704 /// LOC100996395 / RFU, ING1 / Fold change vs veh, ING1 / RFU, TRMT61B / Fold change vs veh, TRMT61B / RFU, FUBP3 / Fold change vs veh, FUBP3 / RFU, TP53 / Fold change vs veh, TP53 / RFU, TNKS2 / Fold change vs veh, TNKS2 / RFU, ZFP14 / Fold change vs veh, ZFP14 / RFU, ACTR2 / Fold change vs veh, ACTR2 / RFU, PPP3R1 / Fold change vs veh, PPP3R1 / RFU, PIK3R1 / Fold change vs veh, PIK3R1 / RFU, HNRNPA1 / Fold change vs veh, HNRNPA1 / RFU, RNF170 / Fold change vs veh, RNF170 / RFU, ZNF28 / Fold change vs veh, ZNF28 / RFU, RNGTT / Fold change vs veh, RNGTT / RFU, OGT / Fold change vs veh, OGT / RFU, BRD1 / Fold change vs veh, BRD1 / RFU, MARS / Fold change vs veh, MARS / RFU, ZNF655 / Fold change vs veh, ZNF655 / RFU, FAHD1 / Fold change vs veh, FAHD1 / RFU, BDP1 / Fold change vs veh, BDP1 / RFU, LRRCC1 / Fold change vs veh, LRRCC1 / RFU, ARID1A / Fold change vs veh, ARID1A / RFU, ZNF146 / Fold change vs veh, ZNF146 / RFU, ZNF330 / Fold change vs veh, ZNF330 / RFU, GPN3 / Fold change vs veh, GPN3 / RFU, C9orf123 / Fold change vs veh, C9orf123 / RFU, N4BP2L2 / Fold change vs veh, N4BP2L2 / RFU, ARFIP1 / Fold change vs veh, ARFIP1 / RFU, FAM179B / Fold change vs veh, FAM179B / RFU, BCL10 / Fold change vs veh, BCL10 / RFU, UHRF1BP1L / Fold change vs veh, UHRF1BP1L / RFU, BET1 / Fold change vs veh, BET1 / RFU, CNOT2 / Fold change vs veh, CNOT2 / RFU, ZNF268 / Fold change vs veh, ZNF268 / Fold change vs veh, ZNF507 / RFU, DGCR2 / Fold change vs veh, DGCR2 / RFU, WDSUB1 / Fold change vs veh, WDSUB1 / Fold change vs veh, HSP90B1 /// MIR3652 / RFU, ADSS / Fold change vs veh, ADSS / RFU, GK / Fold change vs veh, GK / RFU, ZNF148 / Fold change vs veh, ZNF148 / RFU, TAF9 / Fold change vs veh, TAF9 / RFU, SLC1A5 / Fold change vs veh, SLC1A5 / RFU, SLMO2 / Fold change vs veh, SLMO2 / RFU, ABCC4 / Fold change vs veh, ABCC4 / RFU, LOC101060439 /// RAP1B / Fold change vs veh, LOC101060439 /// RAP1B / RFU, RFX7 / Fold change vs veh, RFX7 / RFU, GTPBP10 / Fold change vs veh, GTPBP10 / RFU, CNEP1R1 / Fold change vs veh, CNEP1R1 / RFU, BIVM-ERCC5 /// ERCC5 / Fold change vs veh, BIVM-ERCC5 /// ERCC5 / RFU, ILF3 / Fold change vs veh, ILF3 / RFU 11762660_at / Fold change /veh 11762660_at / RFU VCAN (11757783_s_at) / Fold change /veh VCAN (11757783_s_at) / RFU DDX43 (11728927_at) / Fold change /veh DDX43 (11728927_at) / RFU KRT8 (11758188_x_at) / Fold change /veh KRT8 (11758188_x_at) / RFU NKD1 (11759106_at) / Fold change /veh NKD1 (11759106_at) / RFU SRD5A1 (11742802_a_at) / Fold change /veh SRD5A1 (11742802_a_at) / RFU TPSAB1 /// TPSB2 (11721975_s_at) / Fold change /veh TPSAB1 /// TPSB2 (11721975_s_at) / RFU GSTM3 (11746129_a_at) / Fold change /veh GSTM3 (11746129_a_at) / RFU IL23R (11737362_x_at) / Fold change /veh IL23R (11737362_x_at) / RFU TMEM51 (11727254_a_at) / Fold change /veh TMEM51 (11727254_a_at) / RFU PIWIL2 (11732686_x_at) / Fold change /veh PIWIL2 (11732686_x_at) / RFU ORM1 (11744905_x_at) / Fold change /veh ORM1 (11744905_x_at) / RFU CCDC152 (11743942_at) / Fold change /veh CCDC152 (11743942_at) / RFU ECM1 (11717891_a_at) / Fold change /veh ECM1 (11717891_a_at) / RFU IL23R (11748794_a_at) / Fold change /veh IL23R (11748794_a_at) / RFU TNFAIP8L3 (11732012_x_at) / Fold change /veh TNFAIP8L3 (11732012_x_at) / RFU MBOAT4 (11741988_at) / Fold change /veh MBOAT4 (11741988_at) / RFU 11764193_at / Fold change /veh 11764193_at / RFU TMEM53 (11763286_at) / Fold change /veh TMEM53 (11763286_at) / RFU MAGEB2 (11727129_at) / Fold change /veh MAGEB2 (11727129_at) / RFU TMEM200A (11744735_a_at) / Fold change /veh TMEM200A (11744735_a_at) / RFU CCDC152 (11751479_a_at) / Fold change /veh CCDC152 (11751479_a_at) / RFU FAM211A (11726209_a_at) / Fold change /veh FAM211A (11726209_a_at) / RFU RGS16 (11746705_a_at) / Fold change /veh RGS16 (11746705_a_at) / RFU VCAN (11755009_s_at) / Fold change /veh VCAN (11755009_s_at) / RFU RHOB (11743442_s_at) / Fold change /veh RHOB (11743442_s_at) / RFU RGS16 (11720943_a_at) / Fold change /veh RGS16 (11720943_a_at) / RFU RGS16 (11720944_at) / Fold change /veh RGS16 (11720944_at) / RFU, VPS4B / Fold change vs veh, VPS4B / RFU, CREB1 / Fold change vs veh, CREB1 / RFU, DNAJC13 / Fold change vs veh, DNAJC13 / RFU, GNAQ / Fold change vs veh, GNAQ / RFU, CDK5R1 / Fold change vs veh, CDK5R1 / RFU, ZRANB3 / Fold change vs veh, ZRANB3 / RFU, CUL4A / Fold change vs veh, CUL4A / RFU, CCNY / Fold change vs veh, CCNY / RFU, UFL1 / Fold change vs veh, UFL1 / RFU, COG3 / Fold change vs veh, COG3 / RFU, DIAPH2 / Fold change vs veh, DIAPH2 / RFU, SKA2 / Fold change vs veh, SKA2 / RFU, AFF3 / Fold change vs veh, AFF3 / RFU, LMF1 / Fold change vs veh, LMF1 / RFU, IPO11 / Fold change vs veh, IPO11 / RFU, DFFB / Fold change vs veh, DFFB / RFU, FOXP1 / Fold change vs veh, FOXP1 / RFU, CARD8 / Fold change vs veh, CARD8 / RFU, STRN3 / Fold change vs veh, STRN3 / RFU, ADK / Fold change vs veh, ADK / RFU, RASSF2 / Fold change vs veh, RASSF2 / RFU, WIPF1 / Fold change vs veh, WIPF1 / RFU, LARP1B / Fold change vs veh, LARP1B / RFU, RASA1 / Fold change vs veh, RASA1 / RFU, RB1 / Fold change vs veh, RB1 / RFU, PPFIA1 / Fold change vs veh, PPFIA1 / RFU, MAT2A / Fold change vs veh, MAT2A / RFU, CCT5 / Fold change vs veh, CCT5 / RFU, WDR92 / Fold change vs veh, WDR92 / RFU, CUX1 / Fold change vs veh, CUX1 / RFU, TTC7A / Fold change vs veh, TTC7A / RFU, TMEM135 / Fold change vs veh, TMEM135 / RFU, DEPTOR / Fold change vs veh, DEPTOR / RFU, CPM / Fold change vs veh, CPM / RFU, DNAJB6 / Fold change vs veh, DNAJB6 / RFU, CACNA2D3 / Fold change vs veh, CACNA2D3 / RFU, DTX4 / Fold change vs veh, DTX4 / RFU, TFCP2 / Fold change vs veh, TFCP2 / RFU, GMCL1 /// GMCL1P1 / Fold change vs veh, GMCL1 /// GMCL1P1 / RFU, AEBP2 / Fold change vs veh, AEBP2 / RFU, SNHG1 /// SNORD22 /// SNORD25 /// SNORD26 /// SNORD27 /// SNORD28 /// SNORD29 /// SNORD31 / Fold change vs veh, SNHG1 /// SNORD22 /// SNORD25 /// SNORD26 /// SNORD27 /// SNORD28 /// SNORD29 /// SNORD31 / Fold change (Aza/veh), C12orf56 (ProbeSet 11735607_a_at) / Fold change (ACY-1035/veh), C12orf56 (ProbeSet 11735607_a_at) / Fold change (Aza/veh), FGFR1OP (ProbeSet 11751329_s_at) / Fold change (ACY-1035/veh), FGFR1OP (ProbeSet 11751329_s_at) / Fold change (Aza/veh), VPS36 (ProbeSet 11739960_a_at) / Fold change (ACY-1035/veh), VPS36 (ProbeSet 11739960_a_at) / RFU SYPL1 (11715823_x_at) / Fold change /veh SYPL1 (11715823_x_at) / RFU IGFBP7 (11715501_s_at) / Fold change /veh IGFBP7 (11715501_s_at) / RFU REEP3 (11722064_at) / Fold change /veh REEP3 (11722064_at) / RFU IGLL1 (11728026_x_at) / Fold change /veh IGLL1 (11728026_x_at): dose or concentration left out as unconfirmed
Details: ProbeSet 11730501_a_at; LIST D

Nc1ccc(-c2cccs2)cc1NC(=O)c1ccc2c(c1)cc(C1CC1)n2CCN1CCOCC1 [ACY-1035]
Fold change vs veh, CACNA2D3: 1.05
